Series [1] has as its system TF1-R140Q cells. Description: Hematopoietic stem cell and blast content determination (CD34, CD38, FACS). Type of series: cell-based. As to conditions: for CD34+/CD38+ and CD34+/CD38− cell populations: end of EPO-differentiation assay; for decrease of hematopoietic progenitor cells (CD34+/CD38+): sequential treatment, COMPOUND 1 0.2 μM, azacitidine 0.1 μM, single agents or combination. Here is the method: Flow cytometry analysis was performed for sequential and concurrent schedules. Hematopoietic progenitor cells (CD34+/CD38+) (i) and stem cells (CD34+/CD38−) (ii) populations were normalized to DMSO+EPO and plotted. Values for population percentage decreases are shown, with those in red font depicting greater than additive effect with the combination as compared to AZA or COMPOUND 1 as single agents.
Cells were blocked in 10×BSA and diluted with MACS rinsing solution to 1× concentration for 15 min (staining buffer, BD Biosciences). Supernatant was removed by spinning. 10 μl of anti-CD34 FITC and anti-CD38 APC antibodies (each in staining buffer) were added. Mouse IgG2a FITC and IgG2a APC were used as isotype controls. Cells were stained for 10 min in dark, the solution was spinned to remove supernatant, the cells were resuspended in 300 μl of staining buffer and proceed to fluorescence-activated cell sorting (FACS).
The hematopoietic stem (CD34+/CD38−) and progenitor (CD34+/CD38+) cell populations were quantified at the end of the EPO-differentiation assay (FIGS. 3 and 8). As single agents, both azacitidine and COMPOUND 1 reduced CD34+/CD38+(FIG. 3i) and CD34+/CD38− (FIG. 3ii) cell populations. […] For example, COMPOUND 1 (0.2 μM) and azacitidine (0.1 μM) as single agents decreased hematopoietic progenitor cells (CD34+/CD38+) by 32% and 7%, respectively, with sequential treatment, while the combination of azacitidine (0.1 μM) and COMPOUND 1 (0.2 μM) decreased the hematopoietic progenitor cell population by 64% (FIG. 3i).

Series [2] concerns TF1-R140Q cells. Description: Annexin V/7-AAD flow cytometry cell death analysis. The class given is cell-based. Conditions: concurrent dose-schedule regimen; average values across dose concentrations. Here is the method:
Annexin V and 7-AAD flow cytometry analysis was performed for sequential (day 18) and concurrent (day 14) dosing schedules. Populations were normalized to DMSO+EPO and fold change of percent Annexin V+ and/or 7-AAD+ was plotted.
Cell death was analyzed via Annexin V/7-AAD flow cytometry at the end of the EPO-differentiation assay (FIGS. 4 and 9). In the sequential dose-schedule regimen, there was no induction (<2-fold) of death (AnnexinV+ and/or 7AAD+) with a single agent. In the concurrent dose-schedule regimen, azacitidine and COMPOUND 1 as single agents increased the percentage of AnnexinV+ and/or 7AAD+ cells by 3.4-fold and 3.5-fold (average values across dose concentrations), respectively.
On the technique in general: Flow cytometry measures light scatter and fluorescence of single cells or particles in a stream.

Series [3] deals with TF-1 R140Q cells. Description: Real-time growth and apoptosis (Caspase 3/7 dye) on IncuCyte Zoom. Type of series: cell-based. Conditions: for cell growth: COMPOUND 1 1-10 μM. How it is done: The TF-1 R140Q cells were pre-treated in bulk in flasks with 1 μM of QDx3 azacitidine and then plated with COMPOUND 1 concentrations of 10, 3 and 0.3 μM and Caspase 3/7 dye (obtained from Essen Biosciences) to monitor real-time growth and apoptosis on IncuCyte Zoom up to 104 hrs.
The TF-1 R140Q cells were plated with the combination of azacitidine (1 and 0.3 μM) and COMPOUND 1 (1 μM) and imaged for real-time growth and apoptosis on IncuCyte Zoom up to 104 hrs.
A real-time death analysis was performed using IncuCyte Zoom (FIGS. 5 and 6).

Series [4] deals with TF1 IDH2/R140Q cells. As to conditions: for RNA expression of differentiation markers KLF1 and HBG: concurrent schedule; for increase in HBG gene expression: COMPOUND 1 0.2 μM, single agents or combination. How it is done:
FIG. 2A depicts the effect of the combination of azacitidine and COMPOUND 1 used sequentially on differentiation markers. […] Treated cells were subjected to qRT-PCR (ii) and to HBG qRT-PCR (iii). FIG. 2B depicts the effect of the combination of azacitidine and COMPOUND 1 used concurrently on differentiation markers. […] Treated cells were subjected to qRT-PCR (ii) and to HBG qRT-PCR (iii).
(§1) Measures of cell differentiation, growth and death were evaluated in an engineered TF-1 erythroleukemia cells overexpressing the IDH2/R140Q allele or the empty vector control TF-1/pLVX (Wang et al., Science 340:622-626, 2013). The cells were grown in RPMI containing HEPES and L-glutamine (Lonza 12-115F), 10% FBS (HyClone SH30088.03), Pen/Strep (Life Technologies 15070-063), G418: final concentration 500 μg/ml (Life Technologies 10131-027); GM-CSF: final concentration 5 ng/ml (R&D 215-GM-050). Only newly grown cells were used. G418 and GM-CSF were added fresh to media each time cells were passaged. Media was changed every 2-3 days by pelleting cells and resuspending in fresh media or by adding 2 ml of cells to 10 ml of fresh media. When cells were treated with a compound, the media was changed by pelleting cells to ensure proper concentration of the compound.
The RNA was isolated from cells by RNA easy kit (obtained from Qiagen). 500 ng of RNA was used to make cDNA that was subjected to real-time qPCR to detect fetal hemoglobin (HBG) and KLF-1 gene expression. The RNA easy kit was obtained from Qiagen. cDNA was made from Superscript VILO kit (Life technologies). Taqman probes were obtained from Applied Biosciences.
(§2) Measures of cell differentiation, growth and death were evaluated in TF1-R140Q cells, using an in vitro EPO differentiation assay and dose-schedule paradigms represented in FIG. 1. Cells were treated with vehicle, azacitidine alone, COMPOUND 1 alone, or the combination of azacitidine and COMPOUND 1. In the sequential schedule, cells were pre-treated with azacitidine for three days before adding COMPOUND 1. In the concurrent schedule, cells were co-treated with azacitidine and COMPOUND 1 throughout the assay.

The subject of series [5] is TF1 IDH2/R140Q cells. As to conditions: for hemoglobin production (coloration/hemoglobinization of cell pellets): day 14, COMPOUND 1 0.2 and 1 μM, azacitidine 0.1 and 0.3 μM; for hemoglobin production (red color of cell pellets): day 18, COMPOUND 1 0.2 μM and 1.0 μM.
Source text: FIG. 1 in section A depicts COMPOUND 1 and azacitidine (AZA) combination schedule and dosing paradigms for sequential treatment of: 3 days (QDx3) of pre-treatment with azacitidine followed by treatment with the COMPOUND 1 for one week and erythropoietin (EPO)+COMPOUND 1 for another week. The cells were harvested on Day 18 and subjected to various endpoint assays for monitoring differentiation and death. FIG. 1, in section B depicts COMPOUND 1 and azacitidine combination schedule and dosing paradigms for concurrent treatment of: treatment for 7 days with the combination of azacitidine and COMPOUND 1 followed by 7 days of the treatment with azacitidine, COMPOUND 1 and EPO. The cells were harvested on Day 14 and subjected to various endpoint assays for monitoring differentiation and death.
as §1
F1/pLVX and TF1 IDH2/R140Q cells (100,000 cells/ml) were pretreated for 7 days with COMPOUND 1, azacitidine or combination thereof (medium was changed every 2 days) and washed with PBS to remove residual GM-CSF. Cells were induced to differentiate using EPO (2 unit/ml) in the presence or absence of COMPOUND 1. Induction continued for 7 days and the cell pellets were collected and imaged for hemoglobinization content (as a surrogate for differentiation into blood lineage).
as §2

The conditions of series [6]: cited from earlier work.
For series [7] the following is noted: oral azacitidine; cited from earlier work.
[8] abbreviates: sequential experiment, azacitidine 1 μM.

The values below come from US10695352B2, “Combination therapy for treating malignancies” (Celgene Corporation, priority 2015, dated 2020).

Read-outs that look alike come from different tables or passages of the source.

For `CC(C)(O)CNc1nc(Nc2ccnc(C(F)(F)F)c2)nc(-c2cccc(C(F)(F)F)n2)n1` [COMPOUND 1, 2-methyl-1-[(4-[6-(trifluoromethyl)pyridin-2-yl]-6-{[2-(trifluoromethyl)pyridin-4-yl]amino}-1,3,5-triazin-2-yl)amino]propan-2-ol], in series [1], the “CD34+/CD38+ and CD34+/CD38− cell populations” value was “reduced”; the “decrease of hematopoietic progenitor cells (CD34+/CD38+)” value came to 32%. Further, the “increase in percentage of AnnexinV+ and/or 7AAD+ cells” value in series [2] worked out at 3.5 fold. Also, in series [3] (setting [8]), the cell growth result is “no effect on cell growth”. Further, in series [3] (summary, single agent, or concurrent combination), the “caspase 3/7 death measure” value was “no effect”. Besides, in series [4], the “RNA expression of differentiation markers KLF1 and HBG” value is listed as “Dose-dependent increases”. Moreover, the “increase in HBG gene expression” value in series [4] (concurrent, azacitidine 1 μM) stood at 2.5 fold. The “increase in HBG gene expression” value in series [4] (sequential, azacitidine 0.3 μM) is recorded as 241 fold. The “hemoglobin production (coloration/hemoglobinization of cell pellets)” value in series [5] (concurrent dosing regimen) is listed as “increased hemoglobin production upon EPO differentiation in a dose-dependent manner”. Besides, in series [5] (sequential schedule), the “time to observe increased red color of cells (haem production) post-EPO” value was 7 days and the “hemoglobin production (red color of cell pellets)” value is recorded as “increased hemoglobin production in a dose-dependent manner”.
Regarding `Nc1ncn([C@H]2C[C@H](O)[C@@H](CO)O2)c(=O)n1` [Decitabine, 4-amino-1-(2-deoxy-β-D-erythro-pentofuranosyl)-1,3,5-triazin-2(1H)one], the solubility result in series [6] (dimethylsulfoxide (DMSO)) is “soluble”; in series [6] (ethanol/water (50/50), methanol/water (50/50) and methanol), “slightly soluble”; in series [6] (water), “sparingly soluble”.
For `Nc1ncn([C@@H]2O[C@H](CO)[C@@H](O)[C@H]2O)c(=O)n1` [azacitidine, 4-amino-1-O-D-ribofuranozyl-s-triazin-2(1H)-one], the “CD34+/CD38+ and CD34+/CD38− cell populations” value in series [1] is on record as “reduced”. Besides, in series [1], the “decrease of hematopoietic progenitor cells (CD34+/CD38+)” value was determined as 7%. Besides, the solubility entry is recorded as “insoluble” in series [6] (acetone, ethanol and methyl ketone); “soluble” in series [6] (dimethylsulfoxide (DMSO)); “slightly soluble” in series [6] (ethanol/water (50/50), propylene glycol and polyethylene glycol); “sparingly soluble” in series [6] (water, water-saturated octanol, 5% dextrose in water, N-methyl-2-pyrrolidone, normal saline and 5% Tween 80 in water). Also, the “increase in percentage of AnnexinV+ and/or 7AAD+ cells” value in series [2] was 3.4 fold. For the same compound, the cell growth result in series [3] (setting [8]) was “reduced growth”. Also, the apoptosis result in series [3] (setting [8]) is “increased apoptosis”. In series [7], the maximum tolerated dose is 480 mg. Moreover, the “RNA expression of differentiation markers KLF1 and HBG” value in series [4] is reported as “Dose-dependent increases”. Besides, the “increase in HBG gene expression” value in series [4] (concurrent, azacitidine 1 μM) worked out at 7.1 fold; in series [4] (sequential, azacitidine 0.3 μM) it was 92 fold. In series [5] (concurrent dosing regimen), the “hemoglobin production (coloration/hemoglobinization of cell pellets)” value is “increased hemoglobin production”. Also, in series [5] (concurrent dosing regimen, azacitidine 1 μM), the “cell death as evidenced by decreased cell pellet sizes” value is “cell death occurred”. Further, in series [5] (sequential schedule), the “hemoglobin production (red color of cell pellets)” value was “little or no effect on cell pellet color”.
